These are literature values, as cited in patent US6506434B1, “Process for coating N-[N-(3,3-dimethylbutyl)-L-α-aspartyl]-L-phenylalanine 1-methyl ester onto a carrier” (The NutraSweet Company, priority 1999, dated 2003).

For this data set the following is noted: relative to sugar; stated as known.

For the molecule `COC(=O)[C@H](Cc1ccccc1)NC(=O)[C@H](CC(=O)O)NCCC(C)(C)C` [neotame, N-[N-(3,3-dimethylbutyl)-L-α-aspartyl]-phenylalanine 1-methyl ester], the “sweetening potency (sweeter than sugar)” value is listed as “about 8000 ×”.
